Experimental data as given in patent publication US12227495B2, “Herbicidal compounds” (SYNGENTA CROP PROTECTION AG, priority 2018, dated 2025).

Experiments:
Assay type in all cases: in vivo
Details in all cases: evaluated after 13 days
[1] = tested on: Setaria faberi (SETFA); test: Pre-emergence herbicide test, glasshouse, percentage damage
How it was run: (§1)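 Pot-grown plants were sprayed at 500 g/ha unless otherwise stated, in acetone/water (50:50) with 0.5% Tween 20. Pre-emergence spraying was 1 day after sowing and post-emergence after 8 days, in a glasshouse at 24/16° C, 14 h light, 65% humidity. Percentage damage was scored 13 days later on a 1–5 scale (5=81-100%).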

[2] = tested on: Solanum nigrum (SOLNI); test: as above
How it was run: as §1

[3] = tested on: Lolium perenne (LOLPE); test: as above
How it was run: as §1

[4] = tested on: Ipomoea hederacea (IPOHE); test: as above
How it was run: as §1

[5] = tested on: Amaranthus retoflexus (AMARE); test: as above
How it was run: as §1

[6] = tested on: Echinochloa crus-galli (ECHCG); test: as above
How it was run: as §1

[7] = tested on: Setaria faberi (SETFA); test: Post-emergence herbicide test, glasshouse, percentage damage
How it was run: as §1

[8] = tested on: Solanum nigrum (SOLNI); test: as above
How it was run: as §1

[9] = tested on: Lolium perenne (LOLPE); test: as above
How it was run: as §1

[10] = tested on: Ipomoea hederacea (IPOHE); test: as above
How it was run: as §1

[11] = tested on: Amaranthus retoflexus (AMARE); test: as above
How it was run: as §1

[12] = tested on: Echinochloa crus-galli (ECHCG); test: as above
How it was run: as §1

| Compound | Pre-emergence Test SETFA percentage damage (five point scale) ([1]; rate 1000 g/ha) | Pre-emergence Test SOLNI percentage damage (five point scale) ([2]; rate 1000 g/ha) | Pre-emergence Test LOLPE percentage damage (five point scale) ([3]; rate 1000 g/ha) | Pre-emergence Test IPOHE percentage damage (five point scale) ([4]; rate 1000 g/ha) | Pre-emergence Test AMARE percentage damage (five point scale) ([5]; rate 1000 g/ha) | Pre-emergence Test ECHCG percentage damage (five point scale) ([6]; rate 1000 g/ha) | percentage damage caused to the plant, SETFA ([7]; 1000 g/ha) | percentage damage caused to the plant, SOLNI ([8]; 1000 g/ha) | percentage damage caused to the plant, LOLPE ([9]; 1000 g/ha) | percentage damage caused to the plant, IPOHE ([10]; 1000 g/ha) | percentage damage caused to the plant, AMARE ([11]; 1000 g/ha) | percentage damage caused to the plant, ECHCG ([12]; 1000 g/ha) | other results |
| --- | --- | --- | --- | --- | --- | --- | --- | --- | --- | --- | --- | --- | --- |
| N#Cc1cc(Cl)cnc1Oc1cccc(F)c1-c1cc(C(F)F)no1 [Compound A37] | 5 (5=81-100%) | 5 (5=81-100%) | 5 (5=81-100%) | 5 (5=81-100%) | 5 (5=81-100%) | 5 (5=81-100%) | 5 (5=81-100%) | 5 (5=81-100%) | 4 (4=61-80%) | 5 (5=81-100%) | 5 (5=81-100%) | 4 (4=61-80%) |  |
| O=[N+]([O-])c1cc(Cl)cnc1Oc1cccc(F)c1-c1cc(C(F)F)no1 [Compound A38] | 1 (1=0-20%) | 1 (1=0-20%) | 1 (1=0-20%) | 1 (1=0-20%) | 4 (4=61-80%) | 1 (1=0-20%) | 1 (1=0-20%) | 5 (5=81-100%) | 1 (1=0-20%) | 1 (1=0-20%) | 5 (5=81-100%) | 1 (1=0-20%) |  |
| CS(=O)(=O)c1cnc(Oc2cccc(F)c2-c2cc(C(F)F)no2)c(F)c1 [Compound A39] | 1 (1=0-20%) | 1 (1=0-20%) | 1 (1=0-20%) | 1 (1=0-20%) | 5 (5=81-100%) | 1 (1=0-20%) | 1 (1=0-20%) | 3 (3=41-60%) | 1 (1=0-20%) | 1 (1=0-20%) | 3 (3=41-60%) | 1 (1=0-20%) |  |
| CS(=O)(=O)c1ccc(Oc2cccc(F)c2-c2cc(C(F)F)no2)nc1 [Compound A40] | 1 (1=0-20%) | 1 (1=0-20%) | 1 (1=0-20%) | 1 (1=0-20%) | 2 (2=21-40%) | 1 (1=0-20%) | 1 (1=0-20%) | 4 (4=61-80%) | 1 (1=0-20%) | 1 (1=0-20%) | 3 (3=41-60%) | 1 (1=0-20%) |  |
| Fc1cccc(Oc2ccc(Br)cn2)c1-c1cc(C(F)F)no1 [Compound A41] | 5 (5=81-100%) | 5 (5=81-100%) | 5 (5=81-100%) | 3 (3=41-60%) | 5 (5=81-100%) | 5 (5=81-100%) | 5 (5=81-100%) | 5 (5=81-100%) | 5 (5=81-100%) | 5 (5=81-100%) | 5 (5=81-100%) | 5 (5=81-100%) |  |
| Fc1cc(Cl)cnc1Oc1cccc(Cl)c1-c1cc(C(F)F)no1 [Compound A42] |  |  |  |  |  |  |  |  |  |  |  |  | Pre-emergence Test SETFA percentage damage (five point scale) ([1]; rate 250 g/ha): 5 (5=81-100%); Pre-emergence Test SOLNI percentage damage (five point scale) ([2]; rate 250 g/ha): 4 (4=61-80%); Pre-emergence Test LOLPE percentage damage (five point scale) ([3]; rate 250 g/ha): 5 (5=81-100%); Pre-emergence Test IPOHE percentage damage (five point scale) ([4]; rate 250 g/ha): 3 (3=41-60%); Pre-emergence Test AMARE percentage damage (five point scale) ([5]; rate 250 g/ha): 5 (5=81-100%); Pre-emergence Test ECHCG percentage damage (five point scale) ([6]; rate 250 g/ha): 5 (5=81-100%); percentage damage caused to the plant, SETFA ([7]; 250 g/ha): 5 (5=81-100%); percentage damage caused to the plant, SOLNI ([8]; 250 g/ha): 5 (5=81-100%); percentage damage caused to the plant, LOLPE ([9]; 250 g/ha): 5 (5=81-100%); percentage damage caused to the plant, IPOHE ([10]; 250 g/ha): 4 (4=61-80%); percentage damage caused to the plant, AMARE ([11]; 250 g/ha): 5 (5=81-100%); percentage damage caused to the plant, ECHCG ([12]; 250 g/ha): 4 (4=61-80%) |
